Laboratory results published in patent US8586354B2, “Adenoviruses, nucleic acids that code for the same and the use of said viruses” (priority 2003, dated 2013).

Tests used:
U373 tumour cells = assay: Southern blot of adenoviral replication in U373 cells after cytostatic; assay type: cell-based
Procedure: In order to determine the effect of Irinotecan on adenoviral replication 10^6 U373 tumour cells were plated in 10 cm^2 Petri dishes. In a first reaction 5 μM Irinotecan was added after 24 hours. After another 24 hours the cells were infected with 10 pfu/cell dl520. After incubation of 3 days without Irinotecan DNA was isolated in accordance with the procedure described in example 10.
In a parallel reaction the thus prepared U373-cells were not pre-incubated with Irinotecan. After 48 hours of cultivating the cells without Irinotecan, they were infected with 10 pfu/cell dl520 and subsequently incubated without Irinotecan for another 3 days. DNA was isolated as described above.
Subsequently 2 μg DNA were digested with restriction enzyme Kpn I and a Southern Blot analysis performed. A part of the adenoviral genome (position: 22734-24235) generated by means of PCR was used as a probe.
In order to test the effect of Trichostatin A on adenoviral replication, 10^6 U373 tumour cells were plated in 10 cm^2 Petri dishes. After 24 hours 0.25, 0.5 and 0.75 μM Trichostatin A was added. After another 24 hours the cells were infected with 10 pfu/cell dl520.
After 3 days of incubation in medium without Trichostatin DNA was isolated. Subsequently 2 μg DNA were digested with restriction enzyme Kpn I and a Southern Blot analysis performed. […]

[1] = tested on: Coxsackievirus-adenovirus-receptor (CAR); assay: FACS analysis of CAR expression on U373 cells; assay type: cell-based; details: 1 μM Trichostatin
Procedure: 200,000 U373 cells were plated in 6 well plates. After 24 hours the cells were cultivated with 1 μM Trichostatin for 24 hours. After another 24 hours the cells were isolated. Subsequently, analysis of CAR expression was performed according to a standard protocol using Facs-analysis and the primary antibody anti-CAR clone RmcB from the company Upstate, and a rabbit-anti-mouse FITC as secondary antibody (company DAKO).

HeLa cells = assay: Oncolytic assay with daunorubicine, HeLa; assay type: cell-based; details: 40 ng/ml daunorubicine
Procedure: (§1) In the practising of the oncolytic assays the following procedure was followed: 200,000 cells (HeLa and U2OS, respectively) were plated into each well of a 6 well plate. On the next day 40 ng/ml (final concentration) of daunorubicine were added. After 3 hours of incubation the cells were infected with 10 and 30 pfu dl520/cell, respectively. Subsequently, the cells were incubated in cytostatic free medium. After 3-5 days the cells were stained using crystal violet.

U2OS cells = assay: Oncolytic assay with daunorubicine, U2OS; assay type: cell-based, human; details: 40 ng/ml daunorubicine
Procedure: as §1

CCc1c2c(nc3ccc(OC(=O)N4CCC(N5CCCCC5)CC4)cc13)-c1cc3c(c(=O)n1C2)COC(=O)[C@]3(O)CC [Irinotecan]
adenoviral replication (dl520) compared to untreated control (U373 tumour cells; 5 μM Irinotecan 24 h before 10 pfu/cell dl520, 3 days): significantly increased

CC(/C=C/C(=O)NO)=C\[C@@H](C)C(=O)c1ccc(N(C)C)cc1 [Trichostatin A]
adenoviral replication (dl520) compared to untreated controls (U373 tumour cells; 0.25, 0.5 and 0.75 μM Trichostatin A 24 h before 10 pfu/cell dl520, 3 days): significantly increased
CAR-positive cells [1]: 56.2%

COc1cccc2c1C(=O)c1c(O)c3c(c(O)c1C2=O)C[C@@](O)(C(C)=O)C[C@@H]3O[C@H]1C[C@H](N)[C@H](O)[C@H](C)O1 [daunorubicine]
effect on replication of dl520 (HeLa cells): induces the replication of dl520
effect on replication of dl520 (U2OS cells): induces the replication of dl520
